Reference: patent publication US20260232767A1, “INTERLEUKIN-23 RECEPTOR ANTAGONIST PEPTIDES FOR USE IN THE TREATMENT OF PSORIASIS” (Janssen Pharmaceutica NV, priority 2023, published 2026)

System: subjects with moderate-to-severe plaque psoriasis
Assay: PSSD symptom and sign scores, Example 2
Format: in vivo, human
Settings: for Change from Baseline in PSSD Symptom Score at Week 52, LSMean: MMRM model; for Subjects Achieving PSSD Sign Score 0 at Week 52: Subjects w/Baseline PSSD Sign Score ≥1 (Table 26, second block); for Subjects achieving PSSD Sign Score = 0 at Week 52: subjects with Baseline PSSD Sign Score ≥1; for Subjects achieving PSSD Symptom Score = 0 at Week 52: subjects with Baseline PSSD Symptom Score ≥1; for Change from Baseline in PSSD Sign Score, LSMean / Change from Baseline in PSSD Symptom Score, LSMean: MMRM
[1] = Placebo → 100 mg QD, crossed over at or after Week 16

CC(=O)NCCCC[C@@H]1NC(=O)[C@H](Cc2c[nH]c3c(C)cccc23)NC(=O)[C@H]([C@@H](C)O)NC(=O)[C@H](CC(N)=O)NC(=O)[C@@H](NC(C)=O)C(C)(C)SSC(C)(C)[C@@H](C(=O)N[C@@H](Cc2ccc(OCCN)cc2)C(=O)N[C@@H](Cc2ccc3ccccc3c2)C(=O)NC2(C(=O)N[C@@H](CCC(=O)O)C(=O)N[C@@H](CC(N)=O)C(=O)N[C@@H](Cc3cccnc3)C(=O)N(C)CC(N)=O)CCOCC2)NC1=O [IL-23 receptor antagonist peptide, Ac-[Pen]*-N-T-[W(7-Me)]-[Lys(Ac)]-[Pen]*-Phe[4-(2-aminoethoxy)]-[2-Nal]-[THP]-E-N-[3-Pal]-Sarc-NH2 (*[Pen]-[Pen]* formdisulfidebond)]
Change from Baseline in PSSD Sign Score at Week 52, Median (25 mg BID): −38.5 | Change from Baseline in PSSD Symptom Score at Week 52, Median (25 mg BID): −27.0 | Change from Baseline in PSSD Symptom Score at Week 52, LSMean (25 mg BID): −31.4 | Subjects Achieving PSSD Sign Score 0 at Week 52 (25 mg BID): 5 (12.2%) | Subjects achieving PSSD Sign Score = 0 at Week 52 (25 mg BID): 5 (12.2%) | Subjects achieving PSSD Symptom Score = 0 at Week 52 (25 mg BID): 7 (17.1%) | Change from Baseline in PSSD Sign Score at Week 52, Median (25 mg QD): −32.5 | Change from Baseline in PSSD Symptom Score at Week 52, Median (25 mg QD): −35.0 | Change from Baseline in PSSD Symptom Score at Week 52, LSMean (25 mg QD): −22.3 | Subjects Achieving PSSD Sign Score 0 at Week 52 (25 mg QD): 7 (16.3%) | Subjects achieving PSSD Sign Score = 0 at Week 52 (25 mg QD): 7 (16.3%) | Subjects achieving PSSD Symptom Score = 0 at Week 52 (25 mg QD): 8 (18.6%) | Change from Baseline in PSSD Sign Score at Week 52, Median (50 mg QD): −45.0 | Change from Baseline in PSSD Symptom Score at Week 52, Median (50 mg QD): −34.0 | Change from Baseline in PSSD Symptom Score at Week 52, LSMean (50 mg QD): −33.0 | Subjects achieving PSSD Sign Score = 0 at Week 52 (50 mg QD): 5 (11.6%) | Subjects achieving PSSD Symptom Score = 0 at Week 52 (50 mg QD): 9 (21.4%) | Change from Baseline in PSSD Sign Score at Week 52, Median (100 mg BID): −55.0 | Change from Baseline in PSSD Symptom Score at Week 52, Median (100 mg BID): −53.0 | Change from Baseline in PSSD Symptom Score at Week 52, LSMean (100 mg BID): −44.0 | Subjects Achieving PSSD Sign Score 0 at Week 52 (100 mg BID): 7 (16.7%) | Subjects achieving PSSD Sign Score = 0 at Week 52 (100 mg BID): 7 (16.7%) | Change from Baseline in PSSD Sign Score at Week 52, Median (100 mg QD): −43.0 | Change from Baseline in PSSD Symptom Score at Week 52, Median (100 mg QD): −28.0 | Change from Baseline in PSSD Symptom Score at Week 52, LSMean (100 mg QD): −36.5 | Subjects Achieving PSSD Sign Score 0 at Week 52 (100 mg QD): 6 (14.0%) | Change from Baseline in PSSD Sign Score at Week 52, Median [1]: −48.5 | Change from Baseline in PSSD Symptom Score at Week 52, Median [1]: −30.0 | Change from Baseline in PSSD Symptom Score at Week 52, LSMean [1]: −32.4 | Subjects achieving PSSD Sign Score = 0 at Week 52 [1]: (22.9%) | Subjects achieving PSSD Symptom Score = 0 at Week 52 [1]: (34.3%) | Change from Baseline in PSSD Sign Score, Mean (Week 1, 25 mg BID): −11.3 | Change from Baseline in PSSD Sign Score, Median (Week 1, 25 mg BID): −11.0 | Change from Baseline in PSSD Symptom Score, Mean (Week 1, 25 mg BID): −7.6 | Change from Baseline in PSSD Symptom Score, Median (Week 1, 25 mg BID): −8.0 | Change from Baseline in PSSD Sign Score, LSMean (Week 1, 25 mg BID): −11.4 | Change from Baseline in PSSD Symptom Score, LSMean (Week 1, 25 mg BID): −7.8 | Change from Baseline in PSSD Sign Score, Mean (Week 1, 25 mg QD): −11.9 | Change from Baseline in PSSD Sign Score, Median (Week 1, 25 mg QD): −10.5 | Change from Baseline in PSSD Symptom Score, Mean (Week 1, 25 mg QD): −12.9 | Change from Baseline in PSSD Symptom Score, Median (Week 1, 25 mg QD): −12.0 | Change from Baseline in PSSD Sign Score, LSMean (Week 1, 25 mg QD): −10.9 | Change from Baseline in PSSD Symptom Score, LSMean (Week 1, 25 mg QD): −11.1 | Change from Baseline in PSSD Sign Score, Mean (Week 1, 50 mg QD): −13.3 | Change from Baseline in PSSD Sign Score, Median (Week 1, 50 mg QD): −11.0 | Change from Baseline in PSSD Symptom Score, Mean (Week 1, 50 mg QD): −9.6 | Change from Baseline in PSSD Symptom Score, Median (Week 1, 50 mg QD): −12.0 | Change from Baseline in PSSD Sign Score, LSMean (Week 1, 50 mg QD): −13.3 | Change from Baseline in PSSD Symptom Score, LSMean (Week 1, 50 mg QD): −9.1 | Change from Baseline in PSSD Sign Score, Mean (Week 1, 100 mg BID): −15.9 | Change from Baseline in PSSD Sign Score, Median (Week 1, 100 mg BID): −16.0 | Change from Baseline in PSSD Symptom Score, Mean (Week 1, 100 mg BID): −12.5 | Change from Baseline in PSSD Symptom Score, Median (Week 1, 100 mg BID): −8.0 | Subjects Achieving PSSD Symptom Score 0 (%) (Week 1, 100 mg BID, Baseline Symptom Score ≥1, N=42): (2.4%) | Change from Baseline in PSSD Sign Score, LSMean (Week 1, 100 mg BID): −15.6 | Change from Baseline in PSSD Symptom Score, LSMean (Week 1, 100 mg BID): −11.5 | Change from Baseline in PSSD Sign Score, Mean (Week 1, 100 mg QD): −12.0 | Change from Baseline in PSSD Sign Score, Median (Week 1, 100 mg QD): −9.0 | Change from Baseline in PSSD Symptom Score, Mean (Week 1, 100 mg QD): −6.2 | Change from Baseline in PSSD Symptom Score, Median (Week 1, 100 mg QD): −7.0 | Change from Baseline in PSSD Sign Score, LSMean (Week 1, 100 mg QD): −12.4 | Change from Baseline in PSSD Symptom Score, LSMean (Week 1, 100 mg QD): −8.4 | Change from Baseline in PSSD Sign Score, Mean (Week 2, 25 mg BID): −20.3 | Change from Baseline in PSSD Sign Score, Median (Week 2, 25 mg BID): −15.0 | Change from Baseline in PSSD Symptom Score, Mean (Week 2, 25 mg BID): −16.0 | Change from Baseline in PSSD Symptom Score, Median (Week 2, 25 mg BID): −12.0 | Change from Baseline in PSSD Sign Score, LSMean (Week 2, 25 mg BID): −20.7 | Change from Baseline in PSSD Symptom Score, LSMean (Week 2, 25 mg BID): −16.2 | Change from Baseline in PSSD Sign Score, Mean (Week 2, 25 mg QD): −17.6 | Change from Baseline in PSSD Sign Score, Median (Week 2, 25 mg QD): −17.5 | Change from Baseline in PSSD Symptom Score, Mean (Week 2, 25 mg QD): −18.1 | Change from Baseline in PSSD Symptom Score, Median (Week 2, 25 mg QD): −17.0 | Change from Baseline in PSSD Sign Score, LSMean (Week 2, 25 mg QD): −15.7 | Change from Baseline in PSSD Symptom Score, LSMean (Week 2, 25 mg QD): −15.8 | Change from Baseline in PSSD Sign Score, Mean (Week 2, 50 mg QD): −22.7 | Change from Baseline in PSSD Sign Score, Median (Week 2, 50 mg QD): −22.0 | Change from Baseline in PSSD Symptom Score, Mean (Week 2, 50 mg QD): −17.3 | Change from Baseline in PSSD Symptom Score, Median (Week 2, 50 mg QD): −16.0 | Subjects Achieving PSSD Symptom Score 0 (%) (Week 2, 50 mg QD, Baseline Symptom Score ≥1, N=42): (2.4%) | Change from Baseline in PSSD Sign Score, LSMean (Week 2, 50 mg QD): −23.1 | Change from Baseline in PSSD Symptom Score, LSMean (Week 2, 50 mg QD): −17.2 | Change from Baseline in PSSD Sign Score, Mean (Week 2, 100 mg BID): −24.7 | Change from Baseline in PSSD Sign Score, Median (Week 2, 100 mg BID): −28.0 | Change from Baseline in PSSD Symptom Score, Mean (Week 2, 100 mg BID): −18.4 | Change from Baseline in PSSD Symptom Score, Median (Week 2, 100 mg BID): −14.0 | Change from Baseline in PSSD Sign Score, LSMean (Week 2, 100 mg BID): −24.3 | Change from Baseline in PSSD Symptom Score, LSMean (Week 2, 100 mg BID): −17.1 | Change from Baseline in PSSD Sign Score, Mean (Week 2, 100 mg QD): −22.6 | Change from Baseline in PSSD Sign Score, Median (Week 2, 100 mg QD): −20.0 | Change from Baseline in PSSD Symptom Score, Mean (Week 2, 100 mg QD): −15.2 | Change from Baseline in PSSD Symptom Score, Median (Week 2, 100 mg QD): −14.0 | Change from Baseline in PSSD Sign Score, LSMean (Week 2, 100 mg QD): −24.3 | Change from Baseline in PSSD Symptom Score, LSMean (Week 2, 100 mg QD): −18.4 | Change from Baseline in PSSD Sign Score, Mean (Week 4, 25 mg BID): −26.9 | Change from Baseline in PSSD Sign Score, Median (Week 4, 25 mg BID): −25.0 | Change from Baseline in PSSD Symptom Score, Mean (Week 4, 25 mg BID): −22.8 | Change from Baseline in PSSD Symptom Score, Median (Week 4, 25 mg BID): −20.0 | Subjects Achieving PSSD Symptom Score 0 (%) (Week 4, 25 mg BID, Baseline Symptom Score ≥1, N=41): (4.9%) | Change from Baseline in PSSD Sign Score, LSMean (Week 4, 25 mg BID): −27.5 | Change from Baseline in PSSD Symptom Score, LSMean (Week 4, 25 mg BID): −23.1 | Change from Baseline in PSSD Sign Score, Mean (Week 4, 25 mg QD): −24.5 | Change from Baseline in PSSD Sign Score, Median (Week 4, 25 mg QD): −29.5 | Change from Baseline in PSSD Symptom Score, Mean (Week 4, 25 mg QD): −23.6 | Change from Baseline in PSSD Symptom Score, Median (Week 4, 25 mg QD): −23.0 | Subjects Achieving PSSD Symptom Score 0 (%) (Week 4, 25 mg QD, Baseline Symptom Score ≥1, N=43): (2.3%) | Change from Baseline in PSSD Sign Score, LSMean (Week 4, 25 mg QD): −21.7 | Change from Baseline in PSSD Symptom Score, LSMean (Week 4, 25 mg QD): −19.9 | Change from Baseline in PSSD Sign Score, Mean (Week 4, 50 mg QD): −27.4 | Change from Baseline in PSSD Sign Score, Median (Week 4, 50 mg QD): −29.0
